Experimental findings from US4939125A, “Acyl derivatives of urdamycin A, their preparation and their use” (Hoechst Aktiengesellschaft, priority 1986, dated 1990) are described below.

What all share (type): cell-based
Test [1] relates to L 1210 leukemia cells. Kind of test: In vitro cytostatic activity, colony formation (Hamburger and Salmon), continuous incubation. The note with it: L 1210, continuous incubation, 5 to 7 days at 37° C., colonies from 60 μm, carried out 4 times, deviation less than 15%; for IC50: Mus musculus, L1210, read-out: IC50, Strain test, continuous. How it is done: (§1) The experiment was carried out in accordance with the process of Hamburger and Salmon [New Engl. J. Med. 298, 1321-1327 (1978)]. The medium was replaced by McCoy 5A, and the number of cells was reduced to 5×10^2 cells/plate.
A continuous incubation of cells with various concentrations of the test substance from Examples 1 to 5 and 5',3B,4B,4C,8-penta-O-acetylurdamycin A was carried out. The compounds to be tested were applied to the agar plates before plating-out the cell cultures. The cell cultures then grew for 5 to 7 days in the incubation in an atmosphere of 5% of CO2, 20% of O2 and 95% relative atmospheric humidity at 37° C. After this time, the number of cell colonies having a diameter from 60 μm was determined (in %) relative to the number of cell colonies which had grown in comparison without test substance.
(§2) The IC50 value for continuous and 1-hour incubation was determined from the dose/action curve.
(§3) In all cases, the experiments were carried out 4 times. The deviation in the results was less than 15%.

The test system of a further test is L 1210 tumor cells. Kind of test: Proliferation experiment (MTT). The note with it: carried out 4 times, deviation less than 15%; for IC50: Mus musculus, L1210, L 1210, 72 hours at 37° C., read-out: IC50, Proliferation test. How it is done:
L 1210 tumor cells at the exponential growth phase (5×10^3 cells/ml, Roswell Park Memorial Institute (RPMI) medium) were incubated in a microtiter plate with […] recesses for a period of 72 hours at 37° C., 5% of CO2 and 95% relative atmospheric humidity and various concentrations of the test substances from Examples 1 to 5 and also 5',3B,4B,4C,8-penta-O-acetylurdamycin A. After 65 hours, 50 μl of 3-(4,5-dimethylthiazol-2-yl)-2,5-diphenyltetrazolium bromide (MTT) (2.5 mg/ml of MIT in phosphate buffer saline (PBS)) were added. The MTT was reduced by living cells into the red, water-insoluble dyestuff formazan. After a further 7 hours, the supernatant medium was carefully removed. Formazan was dissolved by adding 100 μl of dimethyl sulfoxide per recess and subsequently shaking gently. The extinction of each recess was determined using a multisan 340 CC photometer (Messrs. Flow) at 491 nm. The results were determined from the extinction ratio of cells with test substance to cells without test substance.
as §3

Test [2] has as its system L 1210 leukemia cells. Put plainly: In vitro cytostatic activity, colony formation (Hamburger and Salmon), 1-hour incubation. The note with it: L 1210, 1 hour incubation at 37° C., then washed and plated, carried out 4 times, deviation less than 15%; for IC50: Mus musculus, L1210, read-out: IC50, Strain test, 1 hour. How it is done: as §1
In the test, the cells were incubated at 37° C. for 1 hour at various concentrations of the test substance. The cells were then washed twice with McCoy 5A solution and subsequently applied to agar plates in accordance with the method of Hamburger and Salmon. The cells were subsequently cultivated as described above, and the number of cell colonies was determined (evaluation as in a).
as §2, §3

Values after ≈ are worked out from the molar mass of the structure shown.

As to `CC(=O)OC1CC(OC2CCC(OC3CC(c4ccc5c(c4O)C(=O)C4=C(C5=O)C5(OC6CCC(O)C(C)O6)C(=O)CC(C)(O)CC5(O)C=C4)OC(C)C3O)OC2C)OC(C)C1OC(C)=O` (stereo not drawn) [3B,4B-Di-O-acetylu. A, 3B,4B-di-O-acetylurdamycin A], the IC50 with L 1210 leukemia cells [1] is 0.11 µg/mL (≈ 0.118 µM); in the test with L 1210 tumor cells, less than 1 µg/mL; in the test with L 1210 leukemia cells [2], 0.35 µg/mL (≈ 0.377 µM).

In the case of `CC(=O)OC1CC(OC2CCC(OC3CC(c4ccc5c(c4O)C(=O)C4=C(C5=O)C5(OC6CCC(O)C(C)O6)C(=O)CC(C)(O)CC5(O)C=C4)OC(C)C3O)OC2C)OC(C)C1O` (stereo not drawn) [3B-O-Acetylurdamycin A, 3B-O-acetylurdamycin A], the IC50 with L 1210 leukemia cells [1] is 0.28 µg/mL (≈ 0.316 µM); with L 1210 tumor cells it was less than 1 µg/mL; in the test with L 1210 leukemia cells [2], 2.2 µg/mL (≈ 2.48 µM).

As for `CCCCCCCC(=O)OC1CC(OC2CCC(OC3CC(c4ccc5c(c4O)C(=O)C4=C(C5=O)C5(OC6CCC(O)C(C)O6)C(=O)CC(C)(O)CC5(O)C=C4)OC(C)C3O)OC2C)OC(C)C1O` (stereo not drawn) [3B-O-Octanoylurdamycin A], the IC50 in the test with L 1210 tumor cells is less than 1 µg/mL; with L 1210 leukemia cells [2], 0.26 µg/mL (≈ 0.268 µM).

Consider `CC(=O)OC1CCC(OC23C(=O)CC(C)(O)CC2(O)C=CC2=C3C(=O)c3ccc(C4CC(OC5CCC(OC6CC(O)C(OC(C)=O)C(C)O6)C(C)O5)C(O)C(C)O4)c(O)c3C2=O)OC1C` (stereo not drawn) [4B,4C-Di-O-acetylu. A, 4B,4C-di-O-acetylurdamycin A], for which the figures for the IC50 in the test with L 1210 leukemia cells [1], with L 1210 tumor cells and in the test with L 1210 leukemia cells [2] were 0.13 µg/mL (≈ 0.14 µM), less than 1 µg/mL and 0.85 µg/mL (≈ 0.915 µM), respectively.

For the compound `CCCCCCCC(=O)OC1C(O)CC(OC2CCC(OC3CC(c4ccc5c(c4O)C(=O)C4=C(C5=O)C5(OC6CCC(O)C(C)O6)C(=O)CC(C)(O)CC5(O)C=C4)OC(C)C3O)OC2C)OC1C` (stereo not drawn) [4B-O-Octanoylurdamycin A], the values for the IC50 in the test with L 1210 tumor cells and with L 1210 leukemia cells [2] were less than 1 µg/mL and 0.09 µg/mL (≈ 0.0927 µM), respectively.

Take `CC(=O)Oc1c(C2CC(OC3CCC(OC4CC(OC(C)=O)C(OC(C)=O)C(C)O4)C(C)O3)C(OC(C)=O)C(C)O2)ccc2c1C(=O)C1=C(C2=O)C2(OC3CCC(OC(C)=O)C(C)O3)C(=O)CC(C)(O)CC2(O)C=C1` (stereo not drawn) [Penta-O-acetylu. A, 5',3B,4B,4C,8-penta-O-acetylurdamycin A, reference compound]: the IC50 in the test on L 1210 leukemia cells [1] was 0.042 µg/mL (≈ 0.0398 µM); in the test on L 1210 tumor cells it was less than 1 µg/mL; in the test with L 1210 leukemia cells [2], 0.12 µg/mL (≈ 0.114 µM).

`CC(=O)OC1CCC(OC23C(=O)CC(C)(O)CC2(O)C=CC2=C3C(=O)c3ccc(C4CC(OC5CCC(OC6CC(OC(C)=O)C(OC(C)=O)C(C)O6)C(C)O5)C(OC(C)=O)C(C)O4)c(O)c3C2=O)OC1C` (stereo not drawn) [5',3B,4B,4C-Tetra-O-acetylu. A, 5',3B,4B,4C-tetra-O-acetylurdamycin A]: the IC50 with L 1210 leukemia cells [1] is 0.078 µg/mL (≈ 0.077 µM); with L 1210 tumor cells, less than 1 µg/mL; with L 1210 leukemia cells [2], 0.25 µg/mL (≈ 0.247 µM).

On to “3B,4B,8-tri-O-acetylurdamycin A [3B,4B,8-Tri-O-acetylu. A]”, for which the “IC50, Strain test, continuous” value in the test with L 1210 leukemia cells [1] was found to be 0.4 µg/mL. Further, the “IC50, Proliferation test” value in the test with L 1210 tumor cells (L 1210, 72 hours at 37° C.) was less than 1 µg/mL. In the test on L 1210 leukemia cells [2], the “IC50, Strain test, 1 hour” value was 1.1 µg/mL.

With `CC(=O)Oc1c(C2CC(OC3CCC(OC4CC(OC(C)=O)C(OC(C)=O)C(C)O4)C(C)O3)C(OC(C)=O)C(C)O2)ccc2c1C(=O)C1=C(C2=O)C2(OC3CCC(O)C(C)O3)C(=O)CC(C)(O)CC2(O)C=C1` (stereo not drawn) [5',3B,4B,8-Tetra-O-acetylu. A, 5',3B,4B,8-tetra-O-acetylurdamycin A], the IC50 in the test with L 1210 leukemia cells [1] was 0.075 µg/mL (≈ 0.074 µM); in the test on L 1210 tumor cells, less than 1 µg/mL.
